The text below walks through data of US7547690B2, “Compounds for the treatment of Hepatitis C” (Bristol-Myers Squibb Company, priority 2007, dated 2009).

Read-outs that look alike come from different tables or passages of the source.

Experiment [1] relates to HCV replicon cells. As to the kind of experiment: HCV replicon FRET / luciferase assay. Format: cell-based. The gist of the method:
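HCV replicon cells (with or without Renilla luciferase reporter) incubated with titrated compounds at 37° C; cytotoxicity read by Alamar blue. Replicon activity then read by NS3 cleavage of EDANS/DABCYL FRET peptide (20 μM final, 340/490 nm kinetic) or by luciferase; background from highest control-inhibitor wells subtracted; EC50 = concentration giving 50% signal reduction.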

The target of experiment [2] is T1, HCV NS5B (Hepatitis C virus genotype 1b, UniProt Q9WMX2).
T1 construct: The protein was expressed with an 18 amino acid C-terminal truncation to enhance the solubility; made in house; host or cells: E. coli BL21(DE3)
T1 sequence (Q9WMX2 2420-2992): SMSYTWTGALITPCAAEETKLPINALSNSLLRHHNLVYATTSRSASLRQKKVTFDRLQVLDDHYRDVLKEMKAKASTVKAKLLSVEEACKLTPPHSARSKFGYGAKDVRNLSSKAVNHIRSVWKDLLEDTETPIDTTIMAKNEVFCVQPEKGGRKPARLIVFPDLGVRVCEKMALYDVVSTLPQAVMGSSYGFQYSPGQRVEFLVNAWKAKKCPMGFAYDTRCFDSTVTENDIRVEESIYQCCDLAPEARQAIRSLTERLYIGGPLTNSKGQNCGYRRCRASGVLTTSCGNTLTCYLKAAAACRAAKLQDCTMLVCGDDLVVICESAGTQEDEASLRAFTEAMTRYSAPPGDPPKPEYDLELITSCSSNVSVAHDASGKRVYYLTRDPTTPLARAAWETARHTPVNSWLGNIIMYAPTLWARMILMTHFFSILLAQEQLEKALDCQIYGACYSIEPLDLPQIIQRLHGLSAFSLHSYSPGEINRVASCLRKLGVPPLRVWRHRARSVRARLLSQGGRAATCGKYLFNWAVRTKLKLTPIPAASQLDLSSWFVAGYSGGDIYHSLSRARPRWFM
As to the kind of experiment: HCV NS5B RdRp enzyme assay (standard / modified). Format: biochemical. To be noted: standard or modified assay not specified. The gist of the method: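 Genotype 1b NS5B, 18-aa C-terminal truncation, E. coli-expressed; polyA template with biotin-oligo-dT12 primer, 3H-UTP (0.29 μM UTP), pH 7.5 Hepes, 2% DMSO, 30 °C, SPA read. Standard: 28 nM enzyme, 6 nM template, 180 nM primer, 60 min. Modified: 1.75 nM enzyme, 0.36 nM template, 20 nM bead-precaptured primer, 4 h; IC50 from seven concentrations, four-parameter fit.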

The mark [3] stands for this setting: Hepatitis C virus, 50% reduction in FRET or luciferase activity in HCV replicon cells, read-out: EC50.
[4] abbreviates: HCV RdRp genotype 1b, read-out: IC50.
Where [5] appears, read: 50% reduction in FRET or luciferase activity in HCV replicon cells, read-out: EC50.

`COc1ccc2c(c1)C1CC1(C(=O)N1CCN3CCC1C3)Cn1c-2c(C2CCCCC2)c2ccc(C(=O)NS(=O)(=O)N(C)C)cc21` (stereo not shown): the EC50 in experiment [1] (setting [3]) was 2.4 to 500 nM. In addition, in experiment [2] (setting [4]), the IC50 was 2.4 to 500 nM.
For `COc1ccc2c(c1)C1CC1(C(=O)N1[C@@H]3C[C@H]1CN(C)C3)Cn1c-2c(C2CCCCC2)c2ccc(C(=O)NS(=O)(=O)N3CCC3)cc21` (stereo partly shown), the EC50 in experiment [1] (setting [3]) was in the range of 2.4 to 500 nM. Further, the IC50 in experiment [2] (setting [4]) was 2.4 to 500 nM.
Regarding `COc1ccc2c(c1)C1CC1(C(=O)N1[C@@H]3C[C@H]1CN(C)C3)Cn1c-2c(C2CCCCC2)c2ccc(C(=O)NS(=O)(=O)C3CC3)cc21` (stereo partly shown), the EC50 in experiment [1] (setting [3]) fell in the range of 2.4 to 500 nM. Also, the IC50 in experiment [2] (setting [4]) was in the range of 2.4 to 500 nM.
`COc1ccc2c(c1)C1CC1(C(=O)N1CCN3CCC1CC3)Cn1c-2c(C2CCCCC2)c2ccc(C(=O)NS(=O)(=O)C(C)C)cc21` (stereo not shown): the EC50 in experiment [1] (setting [3]) fell in the range of 2.4 to 500 nM. For the same compound, the IC50 in experiment [2] (setting [4]) is 2.4 to 500 nM.
As to `COc1ccc2c(c1)C1CC1(C(=O)N1C[C@@H]3C[C@H]1CN3C)Cn1c-2c(C2CCCCC2)c2ccc(C(=O)NS(=O)(=O)N3CCC3)cc21` (stereo partly shown), in experiment [1] (setting [3]), the EC50 was in the range of 2.4 to 500 nM. For the same compound, the IC50 in experiment [2] (setting [4]) lay within 2.4 to 500 nM.
Turning to `COc1ccc2c(c1)C1CC1(C(=O)N1C[C@H]3C[C@@H]1CN3C(=O)OC(C)(C)C)Cn1c-2c(C2CCCCC2)c2ccc(C(=O)NS(=O)(=O)N3CCC3)cc21` (stereo partly shown), the 50% effective concentration (EC50) in experiment [1] (setting [3]) is 2.4 to 500 nM. Also, in experiment [2] (setting [4]), the IC50 lay within 2.4 to 500 nM.
On to `CCN1C[C@H]2C[C@@H]1CN2C(=O)C12CC1c1cc(OC)ccc1-c1c(C3CCCCC3)c3ccc(C(=O)NS(=O)(=O)N4CCC4)cc3n1C2` (stereo partly shown), for which the EC50 in experiment [1] (setting [3]) fell in the range of 2.4 to 500 nM. Further, the IC50 in experiment [2] (setting [4]) was 2.4 to 500 nM.
Regarding `COc1ccc2c(c1)C1CC1(C(=O)N1C[C@H]3C[C@@H]1CN3CC(C)C)Cn1c-2c(C2CCCCC2)c2ccc(C(=O)NS(=O)(=O)N3CCC3)cc21` (stereo partly shown), the half-maximal effective concentration (EC50) in experiment [1] (setting [3]) was 2.4 to 500 nM. For the same compound, in experiment [2] (setting [4]), the IC50 lay in the range of 2.4 to 500 nM.
For the compound `COc1ccc2c(c1)C1CC1(C(=O)N1C[C@@H]3C[C@H]1CN3C)Cn1c-2c(C2CCCCC2)c2ccc(C(=O)NS(=O)(=O)N(C)C)cc21` (stereo partly shown), in experiment [1] (setting [3]), the EC50 lay in the range of 2.4 to 500 nM. Moreover, the IC50 in experiment [2] (setting [4]) is below 20 nM.
The like results for `CCN1C[C@H]2C[C@@H]1CN2C(=O)C12CC1c1cc(OC)ccc1-c1c(C3CCCCC3)c3ccc(C(=O)NS(=O)(=O)C4CC4)cc3n1C2` (stereo partly shown) [drawing 43] were, in that order, 2.4 to 500 nM and below 20 nM.
In the case of `CCN1C[C@H]2C[C@@H]1CN2C(=O)C12CC1c1cc(OC)ccc1-c1c(C3CCCCC3)c3ccc(C(=O)NS(=O)(=O)C4CC4)cc3n1C2` (stereo partly shown) [drawing 44], in experiment [1] (setting [5]), the EC50 fell in the range of 2.4 to 500 nM. In experiment [2] (setting [4]), the IC50 was 2.4 to 500 nM.
Consider `COc1ccc2c(c1)C1CC1(C(=O)N1CCN3CCC1CC3)Cn1c-2c(C2CCCCC2)c2ccc(C(=O)NS(=O)(=O)C3CC3)cc21` (stereo not shown) [drawing 50], for which the EC50 in experiment [1] (setting [3]) is 2.4 to 500 nM. The half-maximal inhibitory concentration (IC50) in experiment [2] (setting [4]) was 2.4 to 500 nM.
Turning to `COc1ccc2c(c1)C1CC1(C(=O)N1C[C@@H]3C[C@H]1CN3C)Cn1c-2c(C2CCCCC2)c2ccc(C(=O)NS(=O)(=O)C3CC3)cc21` (stereo partly shown) [drawing 51], the EC50 in experiment [1] (setting [5]) is above 500 nM. Further, the IC50 in experiment [2] (setting [4]) was in the range of 2.4 to 500 nM.
For `COc1ccc2c(c1)C1CC1(C(=O)N1C[C@@H]3C[C@H]1CN3C)Cn1c-2c(C2CCCCC2)c2ccc(C(=O)NS(=O)(=O)C3CC3)cc21` (stereo partly shown) [drawing 53], in that order: 2.4 to 500 nM and 2.4 to 500 nM.
In the case of `COc1ccc2c(c1)C1CC1(C(=O)N1CCN3CCC1CC3)Cn1c-2c(C2CCCCC2)c2ccc(C(=O)NS(=O)(=O)C3CC3)cc21` (stereo not shown) [drawing 71], the EC50 in experiment [1] (setting [5]) is 2.4 to 500 nM. Also, the IC50 in experiment [2] (setting [4]) fell in the range of 2.4 to 500 nM.
Consider `COc1ccc2c(c1)C1CC1(C(=O)N1C[C@@H]3C[C@H]1CN3C)Cn1c-2c(C2CCCCC2)c2ccc(C(=O)NS(=O)(=O)C3CC3)cc21` (stereo partly shown) [drawing 72], for which the EC50 in experiment [1] (setting [3]) was in the range of 2.4 to 500 nM. In addition, in experiment [2] (setting [4]), the IC50 is below 20 nM.
Regarding `COc1ccc2c(c1)C1CC1(C(=O)N1C[C@@H]3C[C@H]1CN3CC(C)C)Cn1c-2c(C2CCCCC2)c2ccc(C(=O)NS(=O)(=O)C(C)C)cc21` (stereo partly shown) [drawing 94], in experiment [1] (setting [3]), the EC50 lay in the range of 2.4 to 500 nM. In addition, in experiment [2] (setting [4]), the IC50 lay in the range of 2.4 to 500 nM.
Consider `COc1ccc2c(c1)C1CC1(C(=O)N1C[C@@H]3C[C@H]1CN3CC(C)C)Cn1c-2c(C2CCCCC2)c2ccc(C(=O)NS(=O)(=O)C(C)C)cc21` (stereo partly shown) [drawing 95], for which the EC50 in experiment [1] (setting [5]) was in the range of 2.4 to 500 nM. The 50% inhibitory concentration (IC50) in experiment [2] (setting [4]) fell in the range of 2.4 to 500 nM.
`COc1ccc2c(c1)[C@@H]1C[C@]1(C(=O)N1C3CCC1C1CCC3N1C)Cn1c-2c(C2CCCCC2)c2ccc(C(=O)NS(=O)(=O)N(C)C)cc21` [drawing 160]: in experiment [1] (Hepatitis C virus), the EC50 was in the range of 2.4 to 500 nM. In experiment [2] (IC50, HCV RdRp genotype 1b), this compound gave an IC50 of 2.4 to 500 nM.
As to `COc1ccc2c(c1)[C@@H]1C[C@]1(C(=O)N1C3CCC1C1CCC3N1C)Cn1c-2c(C2CCCCC2)c2ccc(C(=O)NS(=O)(=O)N(C)C)cc21` [drawing 161], the EC50 in experiment [1] (50% reduction in FRET or luciferase activity in HCV replicon cells) was 2.4 to 500 nM. This compound also displayed an IC50 in experiment [2] (HCV RdRp genotype 1b) of 2.4 to 500 nM.
